This experiment deals with T1, Aromatase (Rattus norvegicus, UniProt P22443).
T1 construct: Invantile weibliche Ratten reagieren auf PMSG (Pregnant Mare's Serum Gonadotropin)-Behandlung mit einheitlich erhöhter Steroidsynthese; from tissue; host or cells: living infantile female rats (whole animal; serum estradiol read-out)
T1 sequence (P22443 1-508): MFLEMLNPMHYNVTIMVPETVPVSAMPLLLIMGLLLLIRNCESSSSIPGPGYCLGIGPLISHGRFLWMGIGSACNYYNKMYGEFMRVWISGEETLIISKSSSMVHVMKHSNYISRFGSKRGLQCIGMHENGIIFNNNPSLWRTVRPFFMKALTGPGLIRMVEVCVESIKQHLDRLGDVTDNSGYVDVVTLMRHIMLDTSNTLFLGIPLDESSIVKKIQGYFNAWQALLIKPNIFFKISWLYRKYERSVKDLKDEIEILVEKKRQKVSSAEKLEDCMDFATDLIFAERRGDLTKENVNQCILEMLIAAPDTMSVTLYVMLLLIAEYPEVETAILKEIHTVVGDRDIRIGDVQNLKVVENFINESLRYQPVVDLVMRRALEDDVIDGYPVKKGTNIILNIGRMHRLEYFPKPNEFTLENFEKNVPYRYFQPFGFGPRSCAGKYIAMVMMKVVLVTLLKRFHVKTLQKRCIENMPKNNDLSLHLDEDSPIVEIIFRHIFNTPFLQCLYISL
Kind of experiment: PMSG test in infantile female rats (serum estradiol by radioimmunoassay). The settings on record: for Konzentration im Serum Östradiol: infantile Ratten, PMSG-stimulated, 2 x 10 mg/Tier p.o., serum 24 h after last PMSG, mean ± SD, 10 animals per group. In kind it is in vivo, Ratte.

Structures are written as SMILES.

In the case of `C[C@]12CCC(=O)C(O)=C1CC[C@@H]1[C@@H]2CC[C@]2(C)C(=O)CC[C@@H]12` [A, 4-Hydroxy-4-androsten-3,17-dion], the “Konzentration im Serum Östradiol” value was 3,45 ± 0,18 nMol/l. The Wirksamkeit result (PMSG test, oral application, dose range tested 2 x 10 mg, result in words) is “keine Wirksamkeit”.
As to `CC[C@@H]1CC(=O)[C@@]2(C)CC[C@H]3[C@@H](CCC4=C(O)C(=O)CC[C@@]43C)[C@H]12` [B, 15β-Ethyl-4-hydroxy-4-androsten-3,17-dion], the “Konzentration im Serum Östradiol” value is on record as 2,83 ± 0,29 nMol/l.
Same read-out and setting: in the case of `CC[C@@H]1CC(=O)[C@@]2(C)CC[C@H]3[C@@H](CCC4=C(OC(C)=O)C(=O)CC[C@@]43C)[C@H]12` [C, 4-Acetoxy-15β-ethyl-4-androsten-3,17-dion] it was 2,34 ± 0,46 nMol/l.

These data come from patent publication EP0286578A1, “4,15-Disubstituted 4-androsten-3,17-diones, and process for their preparation” (SCHERING AKTIENGESELLSCHAFT, priority 1987, dated 1988).
